Experimental data taken from patent publication EP1074549B1, “Tetrahydro-benzo(d)azepines and their use as antagonists at metabotropic glutamate receptors” (F. HOFFMANN-LA ROCHE AG, priority 1999, dated 2001).

Key:
[1] = target: T1, rat mGluR1a receptor (Rattus norvegicus, UniProt P23385); test: functional assay for the characterization of mGluR 1 antagonistic properties ([Ca2+]i measurement, FLIPR); type: cell-based; conditions: mGluR1a transfected HEK-EBNA cells; 10 µM glutamate as agonist; antagonists applied 5 minutes prior to agonist; read-out: F-IC 50
T1 construct: expressed in transfected cells; host or cells: HEK 293 cells (transient transfection), membrane preparation
Procedure: a) functional assay for the characterization of mGluR 1 antagonistic properties
cDNA encoding rat mGluR1a receptor obtained from Prof. S. Nakanishi (Kyoto, Japan) was transiently transfected into HEK-EBNA cells using a procedure described by Schlaeger et. al., New Dev. New Appl. Anim. Cell Techn., Proc. ESACT Meet., 15th ( 1998), 105-112 and 117-120. [Ca^2+]i measurements were performed on mGluR1a transfected HEK-EBNA cells after incubation of the cells with Fluo-3 AM (0.5 µM final concentration) for 1 hour at 37 °C followed by 4 washes with assay buffer (DMEM supplemented with Hank's salt and 20 mM HEPES. [Ca^2+]i measurements were done using a fluorometric imaging plate reader (FLIPR, Molecular Devices Corporation, La Jolla, CA, USA). 10 µM glutamate as agonist was used to evaluate the potency of the antagonists.
Increasing concentrations of antagonists were applied to the cells 5 minutes prior to the application of the agonist. The inhibition (antagonists) curves were fitted with a four parameter logistic equation giving IC50, and Hill coefficient using the iterative nonlinear curve fitting software Origin (Microcal Software Inc., Northampton, MA, USA).

[2] = target: T1, rat mGluR1a receptor; test: binding assay for the characterization of mGluR 1 antagonistic properties (tritiated radioligand displacement); conditions: membranes from HEK 293 cells transfected with rat mGluR1a; tritiated 1-ethyl-2-methyl-6-oxo-4-(1,1,2-tritritio-1,2,4,5-tetrahydro-benzo[d]azepin-3-yl)-1,6-dihydro-pyrimidine-5-carbonitrile at 3 nM; 1 hour at room temperature; read-out: B-IC 50
Procedure: b) binding assay for the characterization of mGluR 1 antagonistic properties
Binding assay with tritiated 1-ethyl-2-methyl-6-oxo-4-(1,1,2-tritritio-1,2,4,5-tetrahydro-benzo[d]azepin-3-yl)-1,6-dihydro-pyrimidine-5-carbonitrile: HEK 293 cells were transiently transfected with the rat mGluR1a receptor. The cells were collected and washed 3 times with PBS. The cell pellets were frozen at -80 °C. Membranes were prepared from HEK 293 cells transfected with the rat mGluR1a receptor and used in the binding experiments at 10 µg proteins per assay after resuspension in a HEPES NaOH 20mM, pH=7.4 binding buffer. 1-Ethyl-2-methyl-6-oxo-4-(1,1,2-tritritio-1,2,4,5-tetrahydro-benzo[d]azepin-3-yl)-1,6-dihydro-pyrimidine-5-carbonitrile (S.A 33.4Ci/mmol) was used at 3 nM final concentration. The incubation with variable concentrations of potential inhibitors was performed for 1 hour at room temperature, the incubate was then filtered onto GF/B glass fiber filter preincubated 1 hour in PEI 0,1% and washed 3 times with 1ml of cold binding buffer. The radioactivity retained on the unifilter 96 was counted using a Topcount β counter. After correction for non specific binding the data were normalized and the IC50 value calculated using a 4 parameters logistic equation which was fitted to the inhibition curve.

T1 sequence (P23385 19-1199): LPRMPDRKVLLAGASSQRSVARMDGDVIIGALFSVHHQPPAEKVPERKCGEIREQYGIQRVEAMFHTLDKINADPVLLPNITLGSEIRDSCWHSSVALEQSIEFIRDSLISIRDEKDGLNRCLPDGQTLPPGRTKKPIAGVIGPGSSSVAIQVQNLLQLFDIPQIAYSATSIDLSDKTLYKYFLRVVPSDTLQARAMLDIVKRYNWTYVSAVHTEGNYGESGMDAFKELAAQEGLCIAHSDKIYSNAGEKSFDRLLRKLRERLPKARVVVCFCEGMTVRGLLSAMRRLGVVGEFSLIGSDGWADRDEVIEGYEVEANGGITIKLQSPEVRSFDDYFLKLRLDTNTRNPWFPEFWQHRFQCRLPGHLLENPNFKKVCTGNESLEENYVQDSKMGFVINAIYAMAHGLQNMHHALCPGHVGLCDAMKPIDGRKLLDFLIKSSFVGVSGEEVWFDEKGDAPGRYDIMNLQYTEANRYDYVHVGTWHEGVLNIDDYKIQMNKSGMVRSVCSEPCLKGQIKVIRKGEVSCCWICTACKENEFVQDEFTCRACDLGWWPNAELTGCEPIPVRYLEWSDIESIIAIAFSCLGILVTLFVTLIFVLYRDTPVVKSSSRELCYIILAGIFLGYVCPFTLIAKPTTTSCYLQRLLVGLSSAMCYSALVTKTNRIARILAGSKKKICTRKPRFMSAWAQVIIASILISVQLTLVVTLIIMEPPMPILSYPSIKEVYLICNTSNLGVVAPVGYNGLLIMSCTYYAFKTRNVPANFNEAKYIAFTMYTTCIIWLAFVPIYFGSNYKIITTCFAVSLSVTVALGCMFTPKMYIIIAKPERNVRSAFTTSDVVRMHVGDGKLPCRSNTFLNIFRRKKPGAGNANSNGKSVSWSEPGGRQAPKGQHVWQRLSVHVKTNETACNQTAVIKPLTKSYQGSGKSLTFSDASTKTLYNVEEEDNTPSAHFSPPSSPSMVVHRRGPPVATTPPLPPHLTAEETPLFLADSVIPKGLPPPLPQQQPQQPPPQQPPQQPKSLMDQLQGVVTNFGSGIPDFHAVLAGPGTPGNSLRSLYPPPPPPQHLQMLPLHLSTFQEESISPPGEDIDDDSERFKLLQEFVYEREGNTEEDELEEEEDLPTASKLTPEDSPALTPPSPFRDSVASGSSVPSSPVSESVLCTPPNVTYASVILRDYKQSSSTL

## Cc1nc(N2CCc3ccccc3CC2)c([N+](=O)[O-])c(=O)n1CC(F)(F)F [Example 11, 2-Methyl-5-nitro-6-(1,2,4,5-tetrahydro-benzo[d]azepin-3-yl)-3-(2,2,2-trifluoro-ethyl)-3H-pyrimidin-4-one]
[1]
  IC50: 8 nM
[2]
  IC50: 18 nM

## Cc1nc(N2CCc3ccccc3CC2)c(C#N)c(=O)[nH]1 [Example 17, 2-Methyl-6-oxo-4-(1,2,4,5-tetrahydro-benzo[d]azepin-3-yl)-1,6-dihydro-pyrimidine-5-carbonitrile]
[1]
  IC50: 88 nM
[2]
  IC50: 330 nM

## CCNc1nc(N2CCc3ccccc3CC2)c(C#N)c(=O)[nH]1 [Example 25, 2-Ethylamino-6-oxo-4-(1,2,4,5-tetrahydro-benzo[d]azepin-3-yl)-1,6-dihydro-pyrimidine-5-carbonitrile]
[1]
  IC50: 5 nM
[2]
  IC50: 15 nM

## CCn1c(N)nc(N2CCc3ccccc3CC2)c(C#N)c1=O [Example 30, 2-Amino-1-ethyl-6-oxo-4-(1,2,4,5-tetrahydro-benzo[d]azepin-3-yl)-1,6-dihydro-pyrimidine-5-carbonitrile]
[1]
  IC50: 9 nM
[2]
  IC50: 3 nM

## Cc1nc(N2CCc3ccccc3CC2)c(C#N)c(=O)n1CC(F)(F)F [Example 78, 2-Methyl-6-oxo-4-(1,2,4,5-tetrahydro-benzo[d]azepin-3-yl)-1-(2,2,2-trifluoro-ethyl)-1,6-dihydro-pyrimidine-5-carbonitrile]
[1]
  IC50: 26 nM
[2]
  IC50: 11 nM

## N#Cc1c(N2CCc3ccccc3CC2)nc2n(c1=O)CCC2 [Example 126, 4-Oxo-2-(1,2,4,5-tetrahydro-benzo[d]azepin-3-yl)-4,6,7,8-tetrahydro-pyrrolo[1,2-a]pyrimidine-3-carbonitrile]
[1]
  IC50: 100 nM
[2]
  IC50: 720 nM

## CCn1c(C)nc(N2CCc3ccc(F)cc3CC2)c([N+](=O)[O-])c1=O [Example 132, 3-Ethyl-6-(7-fluoro-1,2,4,5-tetrahydro-benzo[d]azepin-3-yl)-2-methyl-5-nitro-3H-pyrimidin-4-one]
[1]
  IC50: 14 nM
[2]
  IC50: 80 nM

## CCn1c(NC=O)nc(N2CCc3ccccc3CC2)c(C#N)c1=O [Example 154, N-[5-cyano-1-ethyl-6-oxo-4-(1,2,4,5-tetrahydro-benzo[d]azepin-3-yl)-1,6-dihydro-pyrimidin-2-yl]-formamide]
[1]
  IC50: 210 nM
[2]
  IC50: 10 nM

## N#Cc1c(OCC(F)(F)F)nc(NCCCN2CCOCC2)nc1N1CCc2ccccc2CC1 [Example 174, 2-(3-Morpholin-4-yl-propylamino)-4-(1,2,4,5-tetrahydro-benzo[d]azepin-3-yl)-6-(2,2,2-trifluoro-ethoxy)-pyrimidine-5-carbonitrile]
[1]
  IC50: 970 nM
[2]
  IC50: 88 nM

## N#Cc1c(OCC(F)(F)F)nc(NCCO)nc1N1CCc2ccccc2CC1 [Example 190, 2-(2-Hydroxy-ethylamino)-4-(1,2,4,5-tetrahydro-benzo[d]azepin-3-yl)-6-(2,2,2-trifluoro-ethoxy)-pyrimidine-5-carbonitrile]
[1]
  IC50: 200 nM
[2]
  IC50: 7 nM

## CNn1c(C)nc(N2CCc3ccccc3CC2)c(C#N)c1=O [Example 214, 2-Methyl-1-methylamino-6-oxo-4-(1,2,4,5-tetrahydro-benzo[d]azepin-3-yl)-1,6-dihydro-pyrimidine-5-carbonitrile]
[1]
  IC50: 120 nM
[2]
  IC50: 20 nM

## Cc1nc(N2CCc3ccccc3CC2)c(C#N)c(=O)n1OCC(F)(F)F [Example 220, 2-Methyl-6-oxo-4-(1,2,4,5-tetrahydro-benzo[d]azepin-3-yl)-1-(2,2,2-trifluoro-ethoxy)-1,6-dihydro-pyrimidine-5-carbonitrile]
[1]
  IC50: 38 nM
[2]
  IC50: 2 nM

## CSc1nc(N)nc(N2CCc3ccccc3CC2)c1C#N [Example 249, 2-Amino-4-methylsulfanyl-6-(1,2,4,5-tetrahydro-benzo[d]azepin-3-yl)-pyrimidine-5-carbonitrile]
[1]
  IC50: 23 nM
[2]
  IC50: 11 nM
